From BindingDB's records for doi:10.1006/frne.1999.0183 (Royal Victoria Hospital, 1999)
Starred links: 1 amine or outer side, 2 acyl side, 3 side chain; linkers in the order of their positions; H or OH if unused. Non-standard residues stand in square brackets, D forms with d. Residues, ends and D or L forms follow the SMILES beside them. *: point of attachment. pNA = O=[N+]([O-])c1ccc(N*)cc1; Nle = CCCC[CH](N)C(=O)O; CO = O=C([*:1])[*:2]

Columns and labels:
[1] = target: Somatostatin receptor type 2 (Homo sapiens, UniProt P30874)
Sequence of Somatostatin receptor type 2 (P30874 whole entry): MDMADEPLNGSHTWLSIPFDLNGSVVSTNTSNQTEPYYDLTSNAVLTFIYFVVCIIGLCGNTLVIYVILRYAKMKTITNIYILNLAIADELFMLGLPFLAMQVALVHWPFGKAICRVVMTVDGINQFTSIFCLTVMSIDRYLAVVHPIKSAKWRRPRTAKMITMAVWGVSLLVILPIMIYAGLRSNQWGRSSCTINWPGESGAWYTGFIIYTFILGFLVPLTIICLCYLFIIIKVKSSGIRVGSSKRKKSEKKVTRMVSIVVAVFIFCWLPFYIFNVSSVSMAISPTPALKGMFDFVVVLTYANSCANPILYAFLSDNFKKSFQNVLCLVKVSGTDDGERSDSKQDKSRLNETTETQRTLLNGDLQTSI

[2] = target: Somatostatin receptor type 5 (Homo sapiens, UniProt P35346)
Sequence of Somatostatin receptor type 5 (P35346 whole entry): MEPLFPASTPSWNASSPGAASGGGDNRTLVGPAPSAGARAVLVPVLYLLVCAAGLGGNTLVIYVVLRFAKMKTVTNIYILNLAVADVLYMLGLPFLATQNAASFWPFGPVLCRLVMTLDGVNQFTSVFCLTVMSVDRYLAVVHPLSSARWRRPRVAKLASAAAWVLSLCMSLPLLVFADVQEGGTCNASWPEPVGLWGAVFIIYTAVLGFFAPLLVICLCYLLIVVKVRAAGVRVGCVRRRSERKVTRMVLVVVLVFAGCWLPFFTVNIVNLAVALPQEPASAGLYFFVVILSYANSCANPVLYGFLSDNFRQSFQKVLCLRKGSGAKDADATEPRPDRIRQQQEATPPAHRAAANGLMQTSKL

[3] = target: Somatostatin receptor type 1 (Homo sapiens, UniProt P30872)
Sequence of Somatostatin receptor type 1 (P30872 whole entry): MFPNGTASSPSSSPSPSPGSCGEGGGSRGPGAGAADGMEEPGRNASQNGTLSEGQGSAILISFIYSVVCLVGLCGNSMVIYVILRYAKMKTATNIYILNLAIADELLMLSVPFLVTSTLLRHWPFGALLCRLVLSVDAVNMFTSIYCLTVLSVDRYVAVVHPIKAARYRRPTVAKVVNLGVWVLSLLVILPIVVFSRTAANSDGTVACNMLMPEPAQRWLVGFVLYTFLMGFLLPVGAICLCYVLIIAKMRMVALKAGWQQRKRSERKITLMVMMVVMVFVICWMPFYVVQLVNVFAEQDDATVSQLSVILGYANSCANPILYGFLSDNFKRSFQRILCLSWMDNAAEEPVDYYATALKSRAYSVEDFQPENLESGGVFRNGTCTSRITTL

[4] = target: Somatostatin receptor type 4 (Homo sapiens, UniProt P31391)
Sequence of Somatostatin receptor type 4 (P31391 whole entry): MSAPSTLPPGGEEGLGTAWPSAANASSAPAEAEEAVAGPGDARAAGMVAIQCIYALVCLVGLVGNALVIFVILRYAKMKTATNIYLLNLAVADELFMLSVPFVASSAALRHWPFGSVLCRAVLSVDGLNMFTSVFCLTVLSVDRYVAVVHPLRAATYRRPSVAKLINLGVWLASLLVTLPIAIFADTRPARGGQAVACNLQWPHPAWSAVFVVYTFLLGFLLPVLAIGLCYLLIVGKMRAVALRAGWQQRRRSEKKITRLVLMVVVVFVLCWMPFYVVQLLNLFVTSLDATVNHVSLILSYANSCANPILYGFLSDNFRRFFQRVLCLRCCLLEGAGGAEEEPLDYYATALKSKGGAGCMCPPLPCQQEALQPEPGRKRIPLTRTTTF

[5] = target: Somatostatin receptor type 3 (Homo sapiens, UniProt P32745)
Sequence of Somatostatin receptor type 3 (P32745 whole entry): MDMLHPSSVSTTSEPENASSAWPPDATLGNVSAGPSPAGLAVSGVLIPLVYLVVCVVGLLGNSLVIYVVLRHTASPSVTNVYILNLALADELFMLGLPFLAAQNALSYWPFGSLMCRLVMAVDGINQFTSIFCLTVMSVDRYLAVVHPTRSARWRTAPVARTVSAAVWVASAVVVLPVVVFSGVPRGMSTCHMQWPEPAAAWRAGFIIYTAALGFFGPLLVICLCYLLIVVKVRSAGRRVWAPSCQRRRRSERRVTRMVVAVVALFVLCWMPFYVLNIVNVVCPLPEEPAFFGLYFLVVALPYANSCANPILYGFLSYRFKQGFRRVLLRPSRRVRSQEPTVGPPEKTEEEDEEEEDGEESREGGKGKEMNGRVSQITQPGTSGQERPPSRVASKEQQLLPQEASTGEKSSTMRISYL

| Compound | Ki [1] | Ki [2] | Ki [3] | Ki [4] | Ki [5] |
| --- | --- | --- | --- | --- | --- |
| C[C@H](N)COC(=O)[C@H](CCCCN)NC(=O)Cc1c(-c2ccc3ccccc3c2)[nH]c2c1ccc1ccccc12 | 52 nM | 0.4 nM | 3.3 nM | 82 nM | 64 nM |
| CSCC[C@H](NC(=O)[C@H](CCCN=C(N)N)NC(=O)[C@@H](N)CC(=O)O)C(=O)N1CCC[C@H]1C(=O)N[C@H]1CSSC[C@@H](C(=O)N[C@@H](CCCCN)C(=O)O)NC(=O)[C@H](CO)NC(=O)[C@H](CO)NC(=O)[C@H](Cc2ccccc2)NC(=O)[C@H]([C@@H](C)O)NC(=O)[C@H](CCCCN)NC(=O)[C@H](Cc2c[nH]c3ccccc23)NC(=O)[C@H](Cc2ccccc2)NC(=O)[C@H](Cc2ccccc2)NC(=O)[C@H](CC(N)=O)NC(=O)[C@H](CCCN=C(N)N)NC1=O [Cortistatin] | 0.6 nM | 0.4 nM | 7 nM | 0.5 nM | 0.6 nM |
| COC(=O)C(CCCNC(=N)N)NC(=O)CCCc1c(-c2ccccc2)[nH]c2c(F)cc(F)cc12 [L-803,087] | 4720 nM | 3880 nM | 199 nM | 0.7 nM | 1280 nM |
| CC(c1c[nH]c2ccccc12)C(NC(=O)N1CCC(n2c(=O)[nH]c3ccccc32)CC1)C(=O)NCC1CCCC(CN)C1 (stereo unspecified) [CAS_5311372] | 0.05 nM | 4260 nM | 2760 nM | 310 nM | 729 nM |
| CCCCC(NC(=O)NC(Cc1ccccc1)C(=O)Nc1ccc([N+](=O)[O-])cc1)C(=O)NC(CCCCN)C(=O)OC (stereo unspecified) [CAS_5311373] ({pNA-Phe-CO}-[Nle]-Lys-OMe; configuration not given here) | > 10000 nM | 1200 nM | 1260 nM | 8650 nM | 24 nM |
| CC(C)NCc1ccc(C[C@@H]2NC(=O)[C@@H](Cc3c[nH]c4ccccc34)NC(=O)[C@H](Cc3ccccc3)NC(=O)[C@H](Cc3ccccc3)NC(=O)[C@H](CCCCN)NC(=O)[C@@H](N)CSSC[C@@H](C(=O)O)NC(=O)[C@H](CO)NC(=O)[C@H]([C@@H](C)O)NC(=O)[C@H](Cc3ccccc3)NC(=O)[C@H]([C@@H](C)O)NC2=O)cc1 [CH-275] (HELM PEPTIDE1{C.K.F.F.[dW].[CC(C)NCc1ccc(C[C@H](N[*:1])C(=O)[*:2])cc1].T.F.T.S.C}$PEPTIDE1,PEPTIDE1,1:R3-11:R3$$$V2.0) |  | 1000 nM | 3.2 nM | 4.3 nM | 1000 nM |
| CC(CCN)CC(C)(C)CNC(=O)[C@@H](Cc1cccc2ccccc12)NC(=O)N(CCc1ccccc1)CCc1ccccn1 (stereo partly drawn) [L-797591] | 1870 nM | 3600 nM | 1.4 nM | 170 nM | 2240 nM |
| CC(C)[C@@H]1NC(=O)[C@H](CCCCN)NC(=O)[C@@H](Cc2c[nH]c3ccccc23)NC(=O)[C@H](Cc2ccc(O)cc2)NC(=O)[C@H](C)N(C)C(=O)[C@H](Cc2ccccc2)NC1=O [seglitide] |  |  | 1000 nM |  | 27 nM |
